Experimental data taken from ChEMBL document CHEMBL2021894, “The Discovery of VX-745: A Novel and Selective p38α Kinase Inhibitor” (ACS Med Chem Lett, 2011).
Calls of active or inactive are those of the source. No cut-off for these calls is given here.

What was measured:
[1] = molecular target: Epidermal growth factor receptor (Homo sapiens) (UniProt P00533); conditions: 2 uM
Description: Inhibition of EGFR at 2 uM

[2] = molecular target: Serine/threonine-protein kinase Chk1 (Homo sapiens) (UniProt O14757); conditions: 2 uM
Description: Inhibition of CHK1 at 2 uM

[3] = AUC in BALB/c mouse at 40 mg/kg, po; format: ADME, organism-based; set-up: dose 40 mg/kg, route oral; conditions: plasma
[4] = molecular target: Inhibitor of nuclear factor kappa-B kinase subunit beta (Homo sapiens) (UniProt O14920); conditions: 2 uM
Description: Inhibition of IKKb at 2 uM

[5] = molecular target: Dual specificity mitogen-activated protein kinase kinase 7 (Homo sapiens) (UniProt O14733); conditions: 2 uM
Description: Inhibition of MKK7 at 2 uM

[6] = AUC in Sprague-Dawley rat at 4.8 mg/kg, iv; format: ADME, organism-based; set-up: dose 4.8 mg/kg, route intravenous; conditions: plasma
[7] = molecular target: Mitogen-activated protein kinase 10 (Homo sapiens) (UniProt P53779); test: Inhibition of JNK3 using KRELVEPLTPSGEAPNQALLR as substrate at 100 uM by spectrophotometric enzyme-coupled assay
[8] = molecular target: Serine/threonine-protein kinase N2 (Homo sapiens) (UniProt Q16513); test: Inhibition of PRK2 at 2 uM
PBMC = test: Antiproliferative activity against PHA-stimulated human PBMC assessed as inhibition of cell proliferation after 72 hrs by thymidine incorporation assay; format: cell-based
[9] = molecular target: Serine/threonine-protein kinase Sgk1 (Homo sapiens) (UniProt O00141); test: Inhibition of SGK at 2 uM
Mus musculus [10] = test: Antiarthritic activity in complete Freund's adjuvant-immunized DBA/1J mouse assessed as inhibition of type 2 collagen-induced paw inflammation at […], po bid measured on day 20; format: functional; conditions: 480 h, dose 2.5 mg/kg
[11] = Inhibition of PKA by filter binding assay
[12] = Half life in Sprague-Dawley rat at 43 mg/kg, po; format: ADME, organism-based; set-up: dose 43 mg/kg, route oral; conditions: in vivo
[13] = Cmax in BALB/c mouse at 40 mg/kg, po; format: ADME, organism-based; set-up: dose 40 mg/kg, route oral; conditions: in vivo
Cytochrome P450 1A2 = Cytochrome P450 1A2 (Homo sapiens, UniProt P05177); test: Inhibition of human CYP1A2; format: ADME
[14] = molecular target: Ribosomal protein S6 kinase alpha-2 (Homo sapiens) (UniProt Q15349); conditions: 2 uM
Description: Inhibition of Rsk3 at 2 uM

Mus musculus [15] = test: Antiarthritic activity in complete Freund's adjuvant-immunized DBA/1J mouse assessed as inhibition of type 2 collagen-induced paw inflammation at 5 mg/kg, po bid measured on day 20; format: functional; conditions: 480 h
[16] = molecular target: Tyrosine-protein kinase Lyn (Homo sapiens) (UniProt P07948); conditions: 2 uM
Description: Inhibition of Lyn at 2 uM

[17] = molecular target: MAP kinase-activated protein kinase 5 (Homo sapiens) (UniProt Q8IW41); test: Inhibition of PRAK at 2 uM
[18] = Plasma protein binding in rat; format: ADME, cell-free; conditions: read-out: PPB (converted)
[19] = molecular target: Insulin receptor (Homo sapiens) (UniProt P06213); conditions: 2 uM
Description: Inhibition of IRTK at 2 uM

[20] = molecular target: Protein kinase C iota type (Homo sapiens) (UniProt P41743); conditions: 2 uM
Description: Inhibition of PKCiota at 2 uM

[21] = molecular target: Mitogen-activated protein kinase 3 (Homo sapiens) (UniProt P27361); conditions: 2 uM
Description: Inhibition of ERK1 at 2 uM

[22] = AUC in BALB/c mouse at 2 mg/kg, iv; format: ADME, organism-based; set-up: dose 2 mg/kg, route intravenous; conditions: plasma
[23] = molecular target: Tyrosine-protein kinase Blk (Homo sapiens) (UniProt P51451); conditions: 2 uM
Description: Inhibition of Blk at 2 uM

Canis familiaris [24] = test: Oral bioavailability in beagle dog at 33 mg/kg; format: ADME, organism-based, Canis lupus familiaris; conditions: in vivo
Canis familiaris [25] = test: AUC in beagle dog at 13.8 mg/kg, iv; format: ADME, organism-based, Canis lupus familiaris, Plasma; set-up: dose 13.8 mg/kg, route intravenous; conditions: in vivo
[26] = Cmax in Sprague-Dawley rat at 43 mg/kg, po; format: ADME, organism-based; set-up: dose 43 mg/kg, route oral; conditions: in vivo

Chain of Tyrosine-protein kinase Blk (Homo sapiens) (P51451 2-505 limits assumed): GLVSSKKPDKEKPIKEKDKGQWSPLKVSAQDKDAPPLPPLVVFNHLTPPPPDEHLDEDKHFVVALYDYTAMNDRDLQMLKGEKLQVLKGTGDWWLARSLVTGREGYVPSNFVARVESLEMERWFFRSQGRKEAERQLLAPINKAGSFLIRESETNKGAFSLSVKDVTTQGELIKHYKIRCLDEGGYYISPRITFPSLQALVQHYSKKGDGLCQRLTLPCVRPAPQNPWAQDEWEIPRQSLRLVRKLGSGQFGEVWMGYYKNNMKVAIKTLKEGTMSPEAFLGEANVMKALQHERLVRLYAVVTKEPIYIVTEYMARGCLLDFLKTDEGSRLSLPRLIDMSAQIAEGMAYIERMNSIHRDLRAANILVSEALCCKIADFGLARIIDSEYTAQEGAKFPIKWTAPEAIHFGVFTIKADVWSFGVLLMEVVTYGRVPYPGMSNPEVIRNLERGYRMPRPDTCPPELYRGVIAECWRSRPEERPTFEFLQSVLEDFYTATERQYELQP
Chain of Mitogen-activated protein kinase 10 (Homo sapiens) (P53779 whole entry): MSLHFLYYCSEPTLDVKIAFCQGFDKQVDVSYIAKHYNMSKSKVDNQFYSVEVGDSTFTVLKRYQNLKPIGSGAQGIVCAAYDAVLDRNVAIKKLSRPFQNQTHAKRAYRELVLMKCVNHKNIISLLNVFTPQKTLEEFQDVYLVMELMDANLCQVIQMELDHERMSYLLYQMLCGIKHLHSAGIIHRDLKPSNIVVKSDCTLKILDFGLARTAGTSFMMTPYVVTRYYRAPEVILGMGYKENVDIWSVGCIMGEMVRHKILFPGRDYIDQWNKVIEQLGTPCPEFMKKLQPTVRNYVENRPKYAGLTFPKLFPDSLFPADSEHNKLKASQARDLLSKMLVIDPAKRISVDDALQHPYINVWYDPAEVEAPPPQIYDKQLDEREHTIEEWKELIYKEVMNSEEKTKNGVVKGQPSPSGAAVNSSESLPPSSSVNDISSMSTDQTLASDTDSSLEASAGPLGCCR
Chain of Dual specificity mitogen-activated protein kinase kinase 7 (Homo sapiens) (O14733 whole entry): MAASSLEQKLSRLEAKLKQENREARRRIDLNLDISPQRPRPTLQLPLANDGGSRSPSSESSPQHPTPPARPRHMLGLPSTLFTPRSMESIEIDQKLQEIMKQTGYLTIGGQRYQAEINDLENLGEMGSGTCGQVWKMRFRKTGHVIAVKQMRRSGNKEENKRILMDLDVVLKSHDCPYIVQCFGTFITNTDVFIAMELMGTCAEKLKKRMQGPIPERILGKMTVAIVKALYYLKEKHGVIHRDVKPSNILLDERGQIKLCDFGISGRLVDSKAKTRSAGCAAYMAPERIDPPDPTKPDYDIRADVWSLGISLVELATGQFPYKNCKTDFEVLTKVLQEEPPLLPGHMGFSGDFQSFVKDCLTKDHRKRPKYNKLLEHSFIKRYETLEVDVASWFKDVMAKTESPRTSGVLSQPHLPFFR
Chain of Protein kinase C iota type (Homo sapiens) (P41743 whole entry): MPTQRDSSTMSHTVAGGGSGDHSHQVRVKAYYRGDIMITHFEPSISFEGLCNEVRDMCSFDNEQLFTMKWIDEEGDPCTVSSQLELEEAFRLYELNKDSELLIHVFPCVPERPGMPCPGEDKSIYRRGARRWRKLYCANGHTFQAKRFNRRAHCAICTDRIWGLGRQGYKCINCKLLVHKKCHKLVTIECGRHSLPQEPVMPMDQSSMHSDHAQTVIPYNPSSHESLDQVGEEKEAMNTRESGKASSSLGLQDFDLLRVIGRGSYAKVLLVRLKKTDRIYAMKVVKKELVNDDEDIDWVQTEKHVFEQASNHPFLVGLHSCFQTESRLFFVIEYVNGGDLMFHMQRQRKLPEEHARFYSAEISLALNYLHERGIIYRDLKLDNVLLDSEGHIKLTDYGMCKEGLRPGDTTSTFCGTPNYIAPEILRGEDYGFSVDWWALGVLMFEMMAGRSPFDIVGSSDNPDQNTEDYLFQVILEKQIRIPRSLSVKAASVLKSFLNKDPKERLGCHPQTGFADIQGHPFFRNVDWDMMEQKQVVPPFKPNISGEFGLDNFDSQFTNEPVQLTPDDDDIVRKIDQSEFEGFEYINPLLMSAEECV
Chain of MAP kinase-activated protein kinase 5 (Homo sapiens) (Q8IW41 whole entry): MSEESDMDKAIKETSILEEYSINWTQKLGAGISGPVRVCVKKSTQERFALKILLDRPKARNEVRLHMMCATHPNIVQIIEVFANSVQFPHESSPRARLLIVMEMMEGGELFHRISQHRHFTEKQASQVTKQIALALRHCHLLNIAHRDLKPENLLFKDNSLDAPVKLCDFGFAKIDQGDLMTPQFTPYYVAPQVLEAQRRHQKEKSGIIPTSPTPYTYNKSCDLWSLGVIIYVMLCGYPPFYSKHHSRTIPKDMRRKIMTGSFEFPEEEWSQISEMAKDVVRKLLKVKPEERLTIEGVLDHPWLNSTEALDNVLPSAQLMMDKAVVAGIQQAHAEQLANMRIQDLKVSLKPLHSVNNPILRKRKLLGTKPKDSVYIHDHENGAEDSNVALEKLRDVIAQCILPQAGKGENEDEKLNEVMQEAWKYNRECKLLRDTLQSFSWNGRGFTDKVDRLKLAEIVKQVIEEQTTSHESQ
Chain of Cytochrome P450 1A2 (P05177 whole entry): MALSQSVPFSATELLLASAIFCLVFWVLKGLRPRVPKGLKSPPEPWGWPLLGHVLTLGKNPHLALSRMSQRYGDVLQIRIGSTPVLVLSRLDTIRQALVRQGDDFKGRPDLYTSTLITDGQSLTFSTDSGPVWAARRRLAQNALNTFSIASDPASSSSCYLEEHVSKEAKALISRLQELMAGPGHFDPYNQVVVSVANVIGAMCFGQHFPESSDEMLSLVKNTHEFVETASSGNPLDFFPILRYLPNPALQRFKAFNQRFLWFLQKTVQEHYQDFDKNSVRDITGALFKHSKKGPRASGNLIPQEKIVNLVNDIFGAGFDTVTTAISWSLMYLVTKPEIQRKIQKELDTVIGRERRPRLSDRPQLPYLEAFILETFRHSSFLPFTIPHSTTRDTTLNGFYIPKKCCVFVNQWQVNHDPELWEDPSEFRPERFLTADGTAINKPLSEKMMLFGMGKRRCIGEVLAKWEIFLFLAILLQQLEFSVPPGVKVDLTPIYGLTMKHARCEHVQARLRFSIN
Chain of Insulin receptor (Homo sapiens) (P06213 28-758 limits assumed): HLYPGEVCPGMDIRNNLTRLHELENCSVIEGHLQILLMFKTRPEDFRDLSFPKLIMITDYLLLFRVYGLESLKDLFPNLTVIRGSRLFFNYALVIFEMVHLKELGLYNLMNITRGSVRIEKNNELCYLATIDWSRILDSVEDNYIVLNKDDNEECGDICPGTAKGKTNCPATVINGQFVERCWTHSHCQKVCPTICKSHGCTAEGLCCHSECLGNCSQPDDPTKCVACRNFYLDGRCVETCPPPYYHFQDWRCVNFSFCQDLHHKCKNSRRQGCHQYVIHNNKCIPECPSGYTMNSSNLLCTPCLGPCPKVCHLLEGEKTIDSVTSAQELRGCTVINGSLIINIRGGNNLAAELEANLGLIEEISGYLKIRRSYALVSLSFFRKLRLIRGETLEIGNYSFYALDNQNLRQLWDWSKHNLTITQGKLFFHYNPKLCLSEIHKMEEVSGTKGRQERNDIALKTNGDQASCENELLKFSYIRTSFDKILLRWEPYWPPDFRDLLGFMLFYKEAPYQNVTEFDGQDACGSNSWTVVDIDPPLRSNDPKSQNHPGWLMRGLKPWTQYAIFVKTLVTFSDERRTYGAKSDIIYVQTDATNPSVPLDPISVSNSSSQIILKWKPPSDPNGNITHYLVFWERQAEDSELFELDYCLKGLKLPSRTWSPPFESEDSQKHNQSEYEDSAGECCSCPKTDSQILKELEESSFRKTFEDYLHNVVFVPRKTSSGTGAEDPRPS
Chain of Insulin receptor (Homo sapiens) (P06213 763-1382 limits assumed): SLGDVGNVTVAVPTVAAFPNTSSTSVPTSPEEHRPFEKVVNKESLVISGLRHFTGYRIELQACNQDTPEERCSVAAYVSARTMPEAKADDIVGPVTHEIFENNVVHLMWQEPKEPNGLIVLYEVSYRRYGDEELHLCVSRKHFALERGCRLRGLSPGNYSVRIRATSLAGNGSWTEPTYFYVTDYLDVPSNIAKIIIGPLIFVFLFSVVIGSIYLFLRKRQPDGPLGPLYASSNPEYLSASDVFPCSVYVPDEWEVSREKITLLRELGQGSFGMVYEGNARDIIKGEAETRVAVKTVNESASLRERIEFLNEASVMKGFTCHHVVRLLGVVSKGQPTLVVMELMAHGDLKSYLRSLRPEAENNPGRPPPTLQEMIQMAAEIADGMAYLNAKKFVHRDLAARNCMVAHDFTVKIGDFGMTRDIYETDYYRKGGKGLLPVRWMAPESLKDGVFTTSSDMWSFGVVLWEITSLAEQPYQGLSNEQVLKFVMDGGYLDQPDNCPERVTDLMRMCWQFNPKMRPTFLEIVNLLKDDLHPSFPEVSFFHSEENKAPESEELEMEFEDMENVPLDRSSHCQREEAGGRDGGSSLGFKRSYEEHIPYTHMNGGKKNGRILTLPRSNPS
Chain of Tyrosine-protein kinase Lyn (Homo sapiens) (P07948 2-512 limits assumed): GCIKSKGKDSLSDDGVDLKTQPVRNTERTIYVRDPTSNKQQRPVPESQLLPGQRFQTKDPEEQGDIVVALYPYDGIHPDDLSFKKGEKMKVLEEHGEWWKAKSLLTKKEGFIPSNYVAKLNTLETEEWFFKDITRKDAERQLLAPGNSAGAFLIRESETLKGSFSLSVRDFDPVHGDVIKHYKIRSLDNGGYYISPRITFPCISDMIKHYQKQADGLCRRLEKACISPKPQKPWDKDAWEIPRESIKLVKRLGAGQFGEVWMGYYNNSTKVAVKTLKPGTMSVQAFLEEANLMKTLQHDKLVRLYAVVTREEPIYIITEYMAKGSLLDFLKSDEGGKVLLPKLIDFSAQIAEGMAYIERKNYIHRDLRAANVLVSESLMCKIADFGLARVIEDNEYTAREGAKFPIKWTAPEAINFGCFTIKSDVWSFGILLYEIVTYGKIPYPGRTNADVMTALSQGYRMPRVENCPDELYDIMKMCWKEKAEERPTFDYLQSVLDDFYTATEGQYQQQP

For `O=c1ncn2nc(Sc3ccc(F)cc3F)ccc2c1-c1c(Cl)cccc1Cl` [NEFLAMAPIMOD], the inhibition [1] was 7%, the inhibition [2] was 0% and the AUC [3] was 27000 ng·h/mL. The inhibition [4] was 0%, the inhibition [5] was 0% and the AUC [6] was 1260 ng·h/mL. For the same molecule, the inhibition [7] was “inactive”, the inhibition [8] was 13% and the Activity (PBMC) was “Non-toxic”. For the same molecule, the inhibition [9] was 5%, the inhibition in vivo at […] (Mus musculus [10]) was 27% and the IC50 [11] was over 5 µM. For the same molecule, the half-life [12] was 4.5 h, the Cmax [13] was 7850 ng/mL and the IC50 (Cytochrome P450 1A2) was over 40 µM. It also gave an inhibition [14] of 0%, an inhibition in vivo at 5 mg/kg (Mus musculus [15]) of 31% and an inhibition [16] of 0%. The inhibition [17] was 12%, the fraction unbound [18] was 0.02 and the inhibition [19] was 0%. The inhibition [20] was 0%, the inhibition [21] was 0% and the AUC [22] was 1540 ng·h/mL. It also gave an inhibition [23] of 0%, an F (Canis familiaris [24]) of 69% and an AUC (Canis familiaris [25]) of 6120 ng·h/mL. For the same molecule, the Cmax [26] was 890 ng/mL.
